Patent US20200270309A1, “MALEIMIDE GROUP-MODIFIED ANGIOGENESIS INHIBITOR HM-1 AND USE THEREOF” (NANJING ANJI BIOLOGICAL TECHNOLOGY CO., LTD, priority 2017, published 2020)
Marks after values point to notes of the source that are not given here. Peptide text beside a SMILES is read from it. * marks the point of attachment. X58 = O=C1C=CC(=O)N1c1cccc(CCCCCCCCCCCC(=O)*)c1; X74 = O=C1C=CC(=O)N1c1cccc(CCCCCCCCCCC(=O)*)c1; X84 = O=C1C=CC(=O)N1c1ccccc1CCCCCCCCCCCCC(=O)*; X59 = O=C1C=CC(=O)N1c1cccc(CCCCCCCCC(=O)*)c1; X60 = O=C1C=CC(=O)N1c1ccccc1CCCCCCCCCC(=O)*; X66 = O=C1C=CC(=O)N1c1cccc(CCCCCCCC(=O)*)c1; X54 = O=C1C=CC(=O)N1c1cccc(CCCCCCC(=O)*)c1; X52 = O=C1C=CC(=O)N1c1ccccc1CCCCCCCC(=O)*; X71 = O=C1C=CC(=O)N1c1cccc(CCCCCC(=O)*)c1; X61 = O=C1C=CC(=O)N1c1cccc(CCCC(=O)*)c1; X75 = O=C1C=CC(=O)N1c1cccc(CC(=O)*)c1

Experiments:
[1] = tested on: collagen-induced arthritis; assay: Mouse collagen-induced arthritis (CIA) animal model; type: in vivo; settings: DBA/1 mice CIA model, dose 4.0 mg/kg, subcutaneous from day 30, n=10; for Clinical score: highest score 16
[2] = tested on: human retinal capillary endothelial cells (HRCECs); assay: MTT proliferation inhibition on HRCECs; type: cell-based; settings: 48 h; for A570 nm-A630 nm: mean±SD
Method: An MTT method was used to detect the inhibitory activity of the angiogenesis inhibitor polypeptide on proliferation of HRCECs. HRCECs were digested and collected with trypsin after being cultured in an incubator at 37° C. with 5% CO2 to a density of 90% or more. The cells were resuspended with a culture solution and counted under a microscope, the cell concentration was adjusted to 3.0×10^4 cells/mL, and the cell suspension was inoculated into a 96-well plate at 100 μL/well, and cultured overnight in an incubator at 37° C. with 5% CO2. After the cells were completely adhered to the wall, cells with the addition of the angiogenesis inhibitor polypeptide were used as administration groups, cells with the addition of Avastin were used as a positive control group, and cells with the addition of culture solution without any drugs were used as a blank control group. The cells were diluted to respective predetermined concentrations with the culture solution. The diluent were added into 96-well plates respectively at 100 μL per well, and the cells were cultured at 37° C. for 48 h in an incubator with 5% CO2. 20 μL of 5 mg/mL MTT was added into each well of the 96-well plate, and the cultivation was continued for 4 h. The culture medium was removed, and 100 μL of DMSO was added to each well for dissolution. The absorbance was measured at a detection wavelength of 570 nm and a reference wavelength of 630 nm using a microplate reader, and the PIR was calculated by the formula as follows:
PIR (%)=1−administration group/negative group
The experiment was repeated independently three times. The results were expressed as mean±SD, and statistical T test was conducted. *P<0.05 indicates significant difference, and **P<0.01 indicates extremely significant difference.

Row | SMILES | Joint swelling degree (mm) [1] [mm] | Left and right paw swelling degree (mm) [1] [mm] | Clinical score [1] | Inhibition rate (%) ([2]; dose 0.05 μM) [%*] | A570 nm-A630 nm ([2]; dose 0.05 μM) | Inhibition rate (%) ([2]; dose 0.1 μM) [%**] | A570 nm-A630 nm ([2]; dose 0.1 μM) | Inhibition rate (%) ([2]; dose 0.2 μM) [%*] | A570 nm-A630 nm ([2]; dose 0.2 μM)
1 | C[C@H](NC(=O)CNC(=O)[C@H](CCCNC(=N)N)NC(=O)CCCCCCc1cccc(N2C(=O)C=CC2=O)c1)C(=O)N[C@@H](CC(=O)O)C(=O)N[C@@H](CCCNC(=N)N)C(=O)N[C@@H](C)C(=O)NCC(=O)NCC(=O)NCC(=O)NCC(=O)N[C@@H](CCCNC(=N)N)C(=O)NCC(=O)N[C@@H](CC(=O)O)C(=O)O [X30] (X54-RGADRAGGGGRGD-OH) | 0.83 ± 0.16 | 0.79 ± 0.16 | 8.73 ± 1.29 | 42.46 | 0.7605 ± 0.00513 | 60.14 | 0.5268 ± 0.06831 | 65.82 | 0.4517 ± 0.03378
2 | C[C@H](NC(=O)CNC(=O)[C@H](CCCNC(=N)N)NC(=O)CCCc1cccc(N2C(=O)C=CC2=O)c1)C(=O)N[C@@H](CC(=O)O)C(=O)N[C@@H](CCCNC(=N)N)C(=O)N[C@@H](C)C(=O)NCC(=O)NCC(=O)NCC(=O)NCC(=O)N[C@@H](CCCNC(=N)N)C(=O)NCC(=O)N[C@@H](CC(=O)O)C(=O)O [X27] (X61-RGADRAGGGGRGD-OH) | 0.78 ± 0.19 | 0.75 ± 0.13 | 8.75 ± 1.43 | 49.84 | 0.6629 ± 0.02448 | 56.47 | 0.5753 ± 0.02814 | 56.64 | 0.5731 ± 0.04774
3 | C[C@H](NC(=O)CNC(=O)[C@H](CCCNC(=N)N)NC(=O)CCCCCCCCCCc1cccc(N2C(=O)C=CC2=O)c1)C(=O)N[C@@H](CC(=O)O)C(=O)N[C@@H](CCCNC(=N)N)C(=O)N[C@@H](C)C(=O)NCC(=O)NCC(=O)NCC(=O)NCC(=O)N[C@@H](CCCNC(=N)N)C(=O)NCC(=O)N[C@@H](CC(=O)O)C(=O)O [X34] (X74-RGADRAGGGGRGD-OH) | 0.84 ± 0.13 | 0.72 ± 0.15 | 8.8 ± 1.34 | 50.55 | 0.6536 ± 0.08102 | 51.43 | 0.6420 ± 0.08726 | 59.92 | 0.5298 ± 0.07541
4 | C[C@H](NC(=O)CNC(=O)[C@H](CCCNC(=N)N)NC(=O)CCCCCCCc1ccccc1N1C(=O)C=CC1=O)C(=O)N[C@@H](CC(=O)O)C(=O)N[C@@H](CCCNC(=N)N)C(=O)N[C@@H](C)C(=O)NCC(=O)NCC(=O)NCC(=O)NCC(=O)N[C@@H](CCCNC(=N)N)C(=O)NCC(=O)N[C@@H](CC(=O)O)C(=O)O [X19] (X52-RGADRAGGGGRGD-OH) | 0.84 ± 0.18 | 0.82 ± 0.14 | 8.72 ± 1.41 | 51.03 | 0.6472 ± 0.01829 | 63.29 | 0.4852 ± 0.07133 | 64.71 | 0.4664 ± 0.01886
5 | C[C@H](NC(=O)CNC(=O)[C@H](CCCNC(=N)N)NC(=O)CCCCCCCCCCCCc1ccccc1N1C(=O)C=CC1=O)C(=O)N[C@@H](CC(=O)O)C(=O)N[C@@H](CCCNC(=N)N)C(=O)N[C@@H](C)C(=O)NCC(=O)NCC(=O)NCC(=O)NCC(=O)N[C@@H](CCCNC(=N)N)C(=O)NCC(=O)N[C@@H](CC(=O)O)C(=O)O [X24] (X84-RGADRAGGGGRGD-OH) | 0.82 ± 0.11 | 0.71 ± 0.12 | 8.94 ± 1.41 | 40.01 | 0.7929 ± 0.02399 | 44.87 | 0.7286 ± 0.00571 | 49.60 | 0.6661 ± 0.02372
6 | C[C@H](NC(=O)CNC(=O)[C@H](CCCNC(=N)N)NC(=O)CCCCCc1cccc(N2C(=O)C=CC2=O)c1)C(=O)N[C@@H](CC(=O)O)C(=O)N[C@@H](CCCNC(=N)N)C(=O)N[C@@H](C)C(=O)NCC(=O)NCC(=O)NCC(=O)NCC(=O)N[C@@H](CCCNC(=N)N)C(=O)NCC(=O)N[C@@H](CC(=O)O)C(=O)O [X29] (X71-RGADRAGGGGRGD-OH) | 0.81 ± 0.15 | 0.71 ± 0.13 | 8.98 ± 1.44 | 52.67 | 0.6256 ± 0.09549 | 58.02 | 0.5549 ± 0.02011 | 61.03 | 0.5151 ± 0.01135
7 | C[C@H](NC(=O)CNC(=O)[C@H](CCCNC(=N)N)NC(=O)CCCCCCCCCCCc1cccc(N2C(=O)C=CC2=O)c1)C(=O)N[C@@H](CC(=O)O)C(=O)N[C@@H](CCCNC(=N)N)C(=O)N[C@@H](C)C(=O)NCC(=O)NCC(=O)NCC(=O)NCC(=O)N[C@@H](CCCNC(=N)N)C(=O)NCC(=O)N[C@@H](CC(=O)O)C(=O)O [X35] (X58-RGADRAGGGGRGD-OH) | 0.76 ± 0.13 | 0.85 ± 0.14 | 8.78 ± 1.23 | 43.91 | 0.7413 ± 0.08995 | 56.72 | 0.5720 ± 0.01284 | 57.45 | 0.5624 ± 0.01279
8 | C[C@H](NC(=O)CNC(=O)[C@H](CCCNC(=N)N)NC(=O)CCCCCCCc1cccc(N2C(=O)C=CC2=O)c1)C(=O)N[C@@H](CC(=O)O)C(=O)N[C@@H](CCCNC(=N)N)C(=O)N[C@@H](C)C(=O)NCC(=O)NCC(=O)NCC(=O)NCC(=O)N[C@@H](CCCNC(=N)N)C(=O)NCC(=O)N[C@@H](CC(=O)O)C(=O)O [X31] (X66-RGADRAGGGGRGD-OH) | 0.78 ± 0.15 | 0.77 ± 0.15 | 8.75 ± 1.38 | 41.92 | 0.7676 ± 0.04187 | 45.65 | 0.7183 ± 0.03361 | 63.50 | 0.4824 ± 0.04754
9 | C[C@H](NC(=O)CNC(=O)[C@H](CCCNC(=N)N)NC(=O)Cc1cccc(N2C(=O)C=CC2=O)c1)C(=O)N[C@@H](CC(=O)O)C(=O)N[C@@H](CCCNC(=N)N)C(=O)N[C@@H](C)C(=O)NCC(=O)NCC(=O)NCC(=O)NCC(=O)N[C@@H](CCCNC(=N)N)C(=O)NCC(=O)N[C@@H](CC(=O)O)C(=O)O [X25] (X75-RGADRAGGGGRGD-OH) | 0.71 ± 0.18 | 0.74 ± 0.14 | 9.21 ± 1.33 | 50.23 | 0.6578 ± 0.08044 | 54.21 | 0.6052 ± 0.09358 | 63.33 | 0.4847 ± 0.06551
10 | C[C@H](NC(=O)CNC(=O)[C@H](CCCNC(=N)N)NC(=O)CCCCCCCCCc1ccccc1N1C(=O)C=CC1=O)C(=O)N[C@@H](CC(=O)O)C(=O)N[C@@H](CCCNC(=N)N)C(=O)N[C@@H](C)C(=O)NCC(=O)NCC(=O)NCC(=O)NCC(=O)N[C@@H](CCCNC(=N)N)C(=O)NCC(=O)N[C@@H](CC(=O)O)C(=O)O [X21] (X60-RGADRAGGGGRGD-OH) | 0.81 ± 0.14 | 0.83 ± 0.16 | 8.79 ± 1.43 | 48.85 | 0.6761 ± 0.01737 | 67.15 | 0.4342 ± 0.04189 | 69.16 | 0.4076 ± 0.06848
11 | C[C@H](NC(=O)CNC(=O)[C@H](CCCNC(=N)N)NC(=O)CCCCCCCCc1cccc(N2C(=O)C=CC2=O)c1)C(=O)N[C@@H](CC(=O)O)C(=O)N[C@@H](CCCNC(=N)N)C(=O)N[C@@H](C)C(=O)NCC(=O)NCC(=O)NCC(=O)NCC(=O)N[C@@H](CCCNC(=N)N)C(=O)NCC(=O)N[C@@H](CC(=O)O)C(=O)O [X32] (X59-RGADRAGGGGRGD-OH) | 0.81 ± 0.16 | 0.81 ± 0.13 | 9.06 ± 1.26 | 52.91 | 0.6224 ± 0.08338 | 54.38 | 0.6030 ± 0.05575 | 69.51 | 0.4030 ± 0.00097
